# Reference: EPA's ToxRefDB 2
# Columns and labels:
# mouse [1] = conditions: Carcinogenicity, b6c3f1, Oral, Feed, dose end: 100 week, group: systemic
# rat [2] = conditions: Carcinogenicity, fischer, Oral, Feed, dose end: 107 week, group: systemic
# rat [3] = conditions: Neurotoxicity screening battery, sprague dawley, Injection, Subcutaneous, dose end: 22 week, group: cannot be grouped
# rat [4] = conditions: Prenatal developmental toxicity study; sprague dawley; Injection; Subcutaneous; dose end: 20 GD; group: maternal; reproductive / reproductive performance / premature delivery / premature delivery + systemic / in life observation / body weight / body …
# rat [5] = conditions: Peri- and post-natal toxicity study (Segment III); sprague dawley; Injection; Subcutaneous; dose end: 22 PND; group: parental; systemic / in life observation / body weight / body weight
# dog [6] = conditions: Chronic toxicity, beagle, Oral, Feed, dose end: 26 week, group: systemic
# rabbit = conditions: Prenatal developmental toxicity study, chinchilla, Oral, Gavage/Intubation, dose end: 18 GD, group: maternal
# dog [7] = conditions: Chronic toxicity; beagle; Oral; Feed; dose end: 52 week; group: systemic; systemic / in life observation / clinical signs / abnormal gait + systemic / in life observation / clinical signs / abnormal posture + …
# rat [8] = conditions: Combined chronic toxicity/carcinogenicity, fischer, Oral, Feed, dose end: 2 year, group: systemic
# dog [9] = conditions: Subchronic oral toxicity in nonrodent, beagle, Feed, dose end: 13 week, group: systemic, systemic / in life observation / clinical signs / abnormal gait + systemic / in life observation / clinical signs / impaired reflex, nos + …
# rat [10] = conditions: Combined chronic toxicity/carcinogenicity, wistar, Oral, Feed, dose end: 104 week, group: systemic
# rat [11] = conditions: Prenatal developmental toxicity study, wistar, Oral, Gavage/Intubation, dose end: 15 GD
# dog [12] = conditions: Chronic toxicity, beagle, Oral, Feed, dose end: 52 week, group: systemic
# mouse [13] = conditions: Combined chronic toxicity/carcinogenicity, other, Oral, Feed, dose end: 23 month, group: systemic
# rat [14] = conditions: Subchronic oral toxicity in rodents, wistar, Feed, dose end: 13 week
# mouse [15] = conditions: Carcinogenicity, cd1, Oral, Feed, dose end: 80 week, group: systemic
# rat [16] = conditions: Multigenerational reproductive toxicity study, wistar, Oral, Feed, dose end: 3 generation
# [17] = systemic / pathology gross / full gross necropsy / lymphoma malignant + systemic / in life observation / body weight / body weight gain
# [18] = systemic / pathology gross / full gross necropsy / lymphoma malignant + systemic / in life observation / body weight / body weight gain + …
# [19] = systemic / in life observation / body weight / body weight + systemic / pathology microscopic / mammary gland / dilatation + systemic / …
# [20] = systemic / pathology microscopic / mammary gland / hyperplasia
# [21] = reproductive / reproductive performance / estrous cycle / periodicity + systemic / clinical chemistry / corticosterone / corticosterone + …
# [22] = systemic / clinical chemistry / corticosterone / corticosterone + systemic / in life observation / body weight / body weight gain
# [23] = systemic / in life observation / clinical signs / defecation (diarrhea) + systemic / in life observation / clinical signs / stiffness + …
# [24] = systemic / in life observation / body weight / body weight gain + systemic / in life observation / food consumption / food consumption + …
# [25] = systemic / in life observation / body weight / body weight + systemic / in life observation / body weight / body weight gain + systemic / in…
# [26] = systemic / in life observation / body weight / body weight + systemic / clinical chemistry / [other] / [other] + systemic / organ weight / …
# [27] = group: developmental, developmental / developmental malformation / bone / enlarged fontanel + developmental / developmental malformation / bone / incomplete …
# [28] = group: maternal, systemic / in life observation / body weight / body weight gain + systemic / in life observation / food consumption / food consumption + …
# [29] = systemic / in life observation / clinical signs / ataxia + systemic / in life observation / clinical signs / defecation (diarrhea) + …
# [30] = systemic / clinical chemistry / alkaline phosphatase (alp/alk) / alkaline phosphatase (alp/alk)
# [31] = systemic / clinical chemistry / alkaline phosphatase (alp/alk) / alkaline phosphatase (alp/alk) + systemic / in life observation / body …
# [32] = group: cholinesterase, cholinesterase / cholinesterase / cholinesterase / cholinesterase (che)
# [33] = group: systemic, systemic / clinical chemistry / chloride / chloride
# [34] = systemic / in life observation / body weight / body weight gain
# [35] = systemic / in life observation / body weight / body weight gain + systemic / pathology gross / ear / lesion(s) (nos) + systemic / pathology …
# [36] = group: offspring, developmental / offspring survival late / viability index / viability index + systemic / in life observation / body weight / offspring (pup…
# [37] = group: offspring, systemic / in life observation / body weight / offspring (pup) weight gain + developmental / offspring survival late / viability index / …
# [38] = group: parental, systemic / in life observation / body weight / body weight
structure (smiles),measurement,setting,value
[Ca+2].[N-]=C=[N-] [Calcium cyanamide],LEL,mouse [1]; [17],75 mg/kg/day
same,NEL,mouse [1]; [17],< 75 mg/kg/day
same,LOAEL,mouse [1]; [18],> 300 mg/kg/day
same,NOAEL,mouse [1]; [18],≥ 300 mg/kg/day
same,LOAEL,rat [2]; [19],> 10 mg/kg/day
same,NOAEL,rat [2]; [19],≥ 10 mg/kg/day
same,LEL,rat [2]; [20],5 mg/kg/day
same,NEL,rat [2]; [20],< 5 mg/kg/day
C[C@]12C[C@H](O)[C@H]3[C@@H](CCC4=CC(=O)CC[C@@]43C)[C@@H]1CC[C@@H]2C(=O)CO [Corticosterone],LOAEL,rat [3]; [21],> 40 mg/kg/day
same,NOAEL,rat [3]; [21],≥ 40 mg/kg/day
same,LEL,rat [3]; [22],10 mg/kg/day
same,NEL,rat [3]; [22],< 10 mg/kg/day
same,LEL,rat [4],40 mg/kg/day
same,LOAEL,rat [4],> 40 mg/kg/day
same,NEL,rat [4],< 40 mg/kg/day
same,NOAEL,rat [4],≥ 40 mg/kg/day
same,LEL,rat [5],40 mg/kg/day
same,LOAEL,rat [5],> 40 mg/kg/day
same,NEL,rat [5],< 40 mg/kg/day
same,NOAEL,rat [5],≥ 40 mg/kg/day
CC1(C)C(C=C(Cl)Cl)C1C(=O)OC(C#N)c1ccc(F)c(Oc2ccccc2)c1 (stereo not given) [Cyfluthrin],LOAEL,dog [6]; [23],15 mg/kg/day
same,NEL,dog [6]; [23],1.62 mg/kg/day
same,NOAEL,dog [6]; [23],5 mg/kg/day
same,LEL,dog [6]; systemic / organ weight / thymus / absolute,5 mg/kg/day
same,LOAEL,rabbit; systemic / in life observation / body weight / body weight gain + systemic / in life observation / food consumption / food consumption,60 mg/kg/day
same,LEL,rabbit; [24],60 mg/kg/day
same,NEL,rabbit; [24],20 mg/kg/day
same,NOAEL,rabbit; [24],20 mg/kg/day
same,LEL,dog [7],10.6 mg/kg/day
same,LOAEL,dog [7],10.6 mg/kg/day
same,NEL,dog [7],2.43 mg/kg/day
same,NOAEL,dog [7],2.43 mg/kg/day
same,LOAEL,rat [8]; systemic / in life observation / body weight / body weight + systemic / in life observation / body weight / body weight gain,11.6 mg/kg/day
same,NEL,rat [8]; [25],2.6 mg/kg/day
same,NOAEL,rat [8]; [25],2.6 mg/kg/day
same,LEL,rat [8]; systemic / in life observation / body weight / body weight + systemic / in life observation / body weight / body weight gain + systemic / …,11.6 mg/kg/day
same,LEL,dog [9],13.9 mg/kg/day
same,LOAEL,dog [9],13.9 mg/kg/day
same,NEL,dog [9],2.36 mg/kg/day
same,NOAEL,dog [9],2.36 mg/kg/day
same,LOAEL,rat [10]; systemic / in life observation / body weight / body weight,19.2 mg/kg/day
same,LEL,rat [10]; systemic / in life observation / body weight / body weight + systemic / clinical chemistry / [other] / [other],6.19 mg/kg/day
same,NEL,rat [10]; [26],2.02 mg/kg/day
same,NOAEL,rat [10]; [26],6.19 mg/kg/day
same,LEL,rat [11]; [27],40 mg/kg/day
same,LOAEL,rat [11]; [27],40 mg/kg/day
same,NEL,rat [11]; [27],10 mg/kg/day
same,NOAEL,rat [11]; [27],10 mg/kg/day
same,LOAEL,"rat [11]; group: maternal, systemic / in life observation / body weight / body weight gain + systemic / in life observation / food consumption / food consumption",10 mg/kg/day
same,LEL,rat [11]; [28],10 mg/kg/day
same,NEL,rat [11]; [28],3 mg/kg/day
same,NOAEL,rat [11]; [28],3 mg/kg/day
same,LOAEL,dog [12]; systemic / in life observation / clinical signs / ataxia,16 mg/kg/day
same,LEL,dog [12]; [29],16 mg/kg/day
same,NEL,dog [12]; [29],4 mg/kg/day
same,NOAEL,dog [12]; [29],4 mg/kg/day
same,LEL,mouse [13]; [30],11.6 mg/kg/day
same,NEL,mouse [13]; [30],< 11.6 mg/kg/day
same,LOAEL,mouse [13]; [31],> 194 mg/kg/day
same,NOAEL,mouse [13]; [31],≥ 194 mg/kg/day
same,LEL,rat [14]; [32],38.9 mg/kg/day
same,LOAEL,rat [14]; [32],> 38.9 mg/kg/day
same,NEL,rat [14]; [32],9.5 mg/kg/day
same,NOAEL,rat [14]; [32],≥ 38.9 mg/kg/day
same,LEL,rat [14]; [33],2.3 mg/kg/day
same,NEL,rat [14]; [33],< 2.3 mg/kg/day
same,NOAEL,"rat [14]; group: systemic, systemic / clinical chemistry / chloride / chloride + systemic / in life observation / body weight / body weight gain + systemic / in life …",9.5 mg/kg/day
same,LOAEL,"rat [14]; group: systemic, systemic / in life observation / body weight / body weight gain + systemic / in life observation / clinical signs / lack of coordination + …",38.9 mg/kg/day
same,LEL,mouse [15]; [34],31.9 mg/kg/day
same,NEL,mouse [15]; [34],< 31.9 mg/kg/day
same,LOAEL,mouse [15]; [35],115 mg/kg/day
same,NOAEL,mouse [15]; [35],31.9 mg/kg/day
same,LOAEL,rat [16]; [36],12.3 mg/kg/day
same,NOAEL,rat [16]; [36],3.8 mg/kg/day
same,LEL,rat [16]; [37],3.8 mg/kg/day
same,NEL,rat [16]; [37],< 3.8 mg/kg/day
same,LEL,rat [16]; [38],3.8 mg/kg/day
same,NEL,rat [16]; [38],< 3.8 mg/kg/day
same,LOAEL,"rat [16]; group: parental, systemic / in life observation / body weight / body weight gain",37.2 mg/kg/day
same,NOAEL,"rat [16]; group: parental, systemic / in life observation / body weight / body weight gain + systemic / in life observation / body weight / body weight",12.3 mg/kg/day
